According to ChEMBL document CHEMBL4354788, “Synthetic small-molecule RNA ligands: future prospects as therapeutic agents” (Medchemcomm, 2019):

Experiments:
[1] = Binding affinity to r(CGG)12 repeat RNA (unknown origin) assessed as reduction in r(CGG)12-[…] interaction
[2] = test system: Human immunodeficiency virus 1; test: Antiviral activity against HIV1 infected in human MT2 cells assessed as inhibition of virus proliferation at 9 uM relative to control; type: functional; details: Human immunodeficiency virus 1, MT2
[3] = test system: Human immunodeficiency virus 1; test: Binding affinity to HIV1 TAR RNA assessed as increase in melting temperature
[4] = Binding affinity to r(CUG) repeat RNA (unknown origin)
[5] = Binding affinity to Stem loop 3 RNA in HIV1 infected in HEK293T cells assessed as reduction in SL3-Gag interaction by measuring inhibition of RNA incorporation into virions; type: cell-based; details: Human immunodeficiency virus 1, HEK-293T
[6] = Binding affinity to HIV1 TAR RNA; design: species or system Human immunodeficiency virus 1
[7] = test system: Human immunodeficiency virus 1; test: Antiviral activity against HIV1 NL4-3 infected in human MAGIC-5B cells assessed as inhibition of virus proliferation; type: functional, organism-based; details: Human immunodeficiency virus 1, NL4-3
[8] = Inhibition of miR-96 hairpin RNA precursor (unknown origin)
[9] = test system: Human immunodeficiency virus 1; test: Antiviral activity against HIV1 infected in human CEM-SS cells assessed as inhibition of virus proliferation; type: functional, organism-based; details: Human immunodeficiency virus 1, CEM-SS
[10] = test system: Human immunodeficiency virus 1; test: Binding affinity to HIV1 TAR RNA in HIV1 NL4-3 infected human TZM-bl cells assessed as inhibition of Tat-mediated activation relative to control; details: concentration not given here
[11] = test system: Human immunodeficiency virus 1; test: Antiviral activity against HIV1 NL4-3 infected human TZM-bl cells assessed as reduction in viral replication; type: functional, organism-based; details: Human immunodeficiency virus 1, NL4-3, TZM-bl
[12] = test system: Human immunodeficiency virus 1; test: Antiviral activity against HIV1 assessed as reduction in viral replication by cell based assay; type: functional, organism-based
[13] = Binding affinity to HCV promoter RNA by NMR-based fragment screening assay; design: species or system Hepacivirus hominis
[14] = target: Rev responsive element (RRE) RNA; test: Binding affinity to HIV1 RRE RNA assessed as reduction in binding of tritiated RRE RNA to biotinylated Rev protein by high-throughput scintillation proximity assay; type: nucleic-acid assay, Human immunodeficiency virus 1
[15] = Binding affinity to r(CUG) repeat RNA (unknown origin) assessed as reduction in r(CUG)-MBNL1 interaction

**Q.** With Cc1c2cc[n+](CCN3CCCCC3)cc2c(C)c2c1[nH]c1ccc(O)cc12 as the compound, how does the IC50 [1] read?
**A.** Its IC50 is 12 µM.

**Q.** For NC[C@H]1O[C@@H](O[C@H]2[C@H](O[C@@H]3O[C@H](Cn4cc(-c5ccc(-c6cn(C[C@H]7O[C@@H](O[C@@H]8[C@@H](O)[C@H](N)C[C@H](N)[C@H]8O[C@@H]8O[C@H](CN)[C@@H](O)[C@H](O)[C@H]8N)[C@H](O)[C@@H]7O[C@@H]7O[C@H](CN)[C@@H](O)[C@H](O)[C@H]7N)nn6)cc5)nn4)[C@@H](O[C@@H]4O[C@H](CN)[C@@H](O)[C@H](O)[C@H]4N)[C@H]3O)[C@@H](O)[C@H](N)C[C@@H]2N)[C@H](N)[C@@H](O)[C@@H]1O, which inhibition at 9 µM [2] is on record?
**A.** Its inhibition at 9 µM is 70%.

**Q.** What about the ΔTm [3] of the same compound?
**A.** Its ΔTm is < 10 °C.

**Q.** Which Kd [4] does the source give for Nc1cccc(-c2nc3cc(-c4ccc5[nH]c(-c6cccc(N)c6)nc5c4)ccc3[nH]2)c1 here?
**A.** Its Kd is 70 nM.

**Q.** For CN1CC/C(=N\c2ccc(C(=O)Nc3ccc(N=c4ccn(C)cc4)cc3)cc2)c2cc([N+](=O)[O-])ccc21, which IC50 [5] is on record?
**A.** Its IC50 is 4.5 µM.

**Q.** For CC(=O)Nc1nc(-c2cccc(NC(=O)[C@H](N)Cc3c[nH]cn3)c2)cs1, which Kd [6] is on record?
**A.** Its Kd is 17500 nM.

**Q.** What about the IC50 [7] of the same compound?
**A.** The IC50 was 410 nM.

**Q.** With CCCN(CC(=O)N(CCC)CC(=O)N(CC(N)=O)Cc1cn(CCCNC(=O)CCCOc2c(C(C)(C)C)cc(-c3nc4cc(N5CCN(C)CC5)ccc4[nH]3)cc2C(C)(C)C)nn1)C(=O)CCCOc1cccc(-c2nc3ccc(-c4nc5ccc(N6CCN(C)CC6)cc5[nH]4)cc3[nH]2)c1 as the compound, how does the IC50 [8] read?
**A.** The IC50 was 50 nM.

**Q.** What does the source list for Cc1ccc2c(N)c(C(=O)Nc3cccc(C(F)(F)F)c3)sc2n1?
**A.** Kd [6]: 2400 nM; EC50 [9]: 28 µM

**Q.** With CCN[C@@H]1C[C@H](N)[C@@H](O[C@H]2OC(CN)=CC[C@H]2N)[C@H](O)[C@H]1O[C@H]1OC[C@](C)(O)[C@H](NC)[C@H]1O [NETILMICIN] as the compound, how does the Kd [6] read?
**A.** Its Kd is 1350 nM.

**Q.** What about the inhibition [10] of the same compound?
**A.** Its inhibition is 81%.

**Q.** What about the IC50 [11] of the same compound?
**A.** Its IC50 is 23.1 µM.

**Q.** Which EC50 ([12]; read-out: EC50) does the source give for CN(C)CCOc1cc2c(c3ccccc13)-c1ccccc1C2=O here?
**A.** Its EC50 is 830 nM.

**Q.** Which Kd [13] does the source give for COc1cc2nc(N3CCNCC3)nc(N)c2cc1OC [AMINODIMETHOXYQUINAZOLINYLPIPERAZINE] here?
**A.** The Kd was 50.5 µM.

**Q.** Which results are given for CCN(CC)CCOc1ccc(/C(=C(/Cl)c2ccccc2)c2ccccc2)cc1 [ENCLOMIPHENE]?
**A.** EC50 [12]: 4300 nM; IC50 [14]: 3.7 µM

**Q.** Which results are given for COc1ccc2nc3cc(Cl)ccc3c(NCCCCNc3nc(N)nc(N)n3)c2c1?
**A.** Kd [4]: 5.2 nM; IC50 [15]: 15 µM
